# Measurements as given in patent publication US8486381B2, “Methods of modulating intestinal fluid balance” (Amgen Inc., priority 2005, dated 2013).
# Entries after “also recorded” stand apart in the source; their conditions may differ. Structures can show the parent of a compound that is named as a salt. Where two headings read alike, the source gives them in different places.
# Key:
# [1] = test system: isolated rat colonic crypts; experiment: Net fluid movement (Jv) in in vitro perfused rat colonic crypts; assay type: cell-based; conditions: for EC50: Rattus norvegicus, read-out: EC50, attenuation of forskolin-induced net fluid secretion, forskolin 10 μM, 0.1 mM Ca^2+; for Effect on net fluid secretion in presence of forskolin and PLC inhibitor U73122: U73122 10 μM, 0.1 mM calcium
# [2] = test system: proximal or distal colon segments; assay type: cell-based, Sprague-Dawley rats
# [3] = test system: proximal and distal colon crypts; assay type: cell-based, Sprague-Dawley rats
# rat colonic crypts = experiment: Absorptive fluid movement (netJv with secretion inhibited) in perfused rat colonic crypts; assay type: cell-based
# BALB/c mice [4] = conditions: mouse, in vivo
# BALB/c mice [5] = conditions: mouse, in vivo; remark: listed apart in the source
# cyclic GMP = experiment: Secretagogue-stimulated cyclic GMP accumulation in colonic crypt cell suspensions; assay type: cell-based; conditions: IBMX 1 mM
# cyclic AMP = experiment: Secretagogue-stimulated cyclic AMP accumulation in colonic crypt cell suspensions; assay type: cell-based
# [6] = test system: colonic crypts from Casr^+/+:Gcm2^+/+ mice; experiment: Net Jv in perfused colonic crypts from wild type mice; assay type: cell-based; conditions: for Effect on net fluid secretion induced by Guanylin and CTX: Casr^+/+:Gcm2^+/+
# [7] = test system: basolateral Cl^− entry into colonic crypt cells via NKCCl; experiment: Cell Cl^− influx measurements (MQAE fluorescence) in colonic crypts; assay type: cell-based, rat
# Protocol: Cl^− Measurements. Cell Cl^− influx measurements (Egan, M. E. et al. Nat. […] Molecular Probes]. After dye loading, crypts were incubated in a Cl^− free HEPES buffer until stable high baseline fluorescence intensity was achieved. Rates of cell Cl^− influx were monitored as rates of reductions in arbitrary MQAE fluorescent units (ΔAFU/min; Ex: 346 nm; EM: 460 nm).
# [8] = test system: colonic crypts from Casr^−/−:Gcm2^−/− mice; experiment: Net Jv in perfused colonic crypts from CaSR null mice; assay type: cell-based; conditions: for Effect on net fluid secretion induced by Guanylin and CTX: Casr^−/−:Gcm2^−/−
# [9] = test system: apical NHE (Na^+/H^+ exchanger); experiment: NHE activity: Na^+-dependent proton extrusion from colonocytes; assay type: cell-based, rat; conditions: forskolin present
# Source text: Cyclic nucleotide-dependent fluid loss in secretory […] occurs through reduction in absorptive, and increases in secretory, processes. Lucas, M. L. J. Appl. Microbiol. 90, 7-26, 2001; Golin-Bisello, F. et al. Am. J. Cell. Physiol. 289, […]-[…], 2005. Colonic epithelial crypts provide a model for understanding intestinal fluid transport as they simultaneously absorb and secrete fluid with the direction of net fluid movement (^netJv) depending on the relative magnitudes of these two processes. A major component of fluid absorption in the colon is mediated by parallel Na^+/H^+ (sodium-hydrogen exchanger, NHE) and Cl^-/HCO3^- exchange located at the apical plasma membranes. Kunzelman, K. et al. Physiol. Rev. 82, 245-289, 2002; Donowith, M. et al. Annu. Rev. Physiol. 48, 135-150, 1986. Cyclic nucleotides reduce this Na^+-dependent fluid absorption by inhibiting NHE activity. […] This basal fluid was likely due to the low levels of cell cyclic nucleotides that remain even in the absence of secretagogues. […] To examine if this latter effect of CaSR agonists on fluid absorption resulted from enhanced apical NHE activity, the effects of Ca^2+ on Na^+-dependent proton extrusion from colonocytes were assessed in the presence of forskolin. […] Cell acid loading was accomplished by exposure to NH4Cl and Na^+-dependent cell pH recovery following removal of NH4Cl was assessed as an index of Na^+/H^+ activity. […]
# [10] = extracellular calcium raised from 0.1 mM to 2 mM
compound,measurement,setting,value
"COc1cccc(C(C)NCCCc2ccccc2Cl)c1 (stereo not drawn) [Compound A, S-stereoisomer, N-(3-[2-chlorophenyl]-propyl)-α-methyl-3-methoxybenzylamine HCl]",EC50,[1]; compound in bath,0.619 nM
same,EC50,[1]; compound in lumen,0.756 nM
"NC1=N[C@H](O)[C@H]2[C@H]3O[C@]4(O)O[C@@H]([C@@H](O)[C@@]2(N1)[C@@H]4O)[C@]3(O)CO [TTX, tetrodotoxin]",Effect on ability of calcimimetics to reverse forskolin-stimulated increase in Isc,[2],abolished
same,Effect on forskolin-induced net fluid secretion,[3],did not change the ability of forskolin to induce a net fluid secretion
C=C[C@@]1(C)CC(=O)[C@]2(O)[C@@]3(C)[C@@H](O)CCC(C)(C)[C@@H]3[C@H](O)[C@H](OC(C)=O)[C@@]2(C)O1 [forskolin],"Mean Jv, distal colonic crypts",[3],−0.33±0.01 nL/min/mm
same,"Mean Jv, proximal colonic crypts",[3],−0.32±0.02 nL/min/mm
"CCCC(=O)Nc1ncnc2c1ncn2[C@@H]1O[C@@H]2COP(=O)(O)O[C@H]2[C@H]1OC(=O)CCC [db-cyclic AMP, dibutyryl-cAMP]",Absorptive fluid movement,rat colonic crypts; in the presence of bumetanide,substantially reduced
"COc1ccc(CNC(C)c2ccccc2)cc1-c1ccc(C(F)(F)F)cc1 (stereo not shown) [Compound B, N-((6-(methyloxy)-4′-(trifluoromethyl)-1,1′-biphenyl-3-yl)methyl)-1-phenylethanamine]",Cholera toxin-induced gastrointestinal fluid accumulation,BALB/c mice [4],statistically significant reduction
same,Mortality 24 hrs (moribund),BALB/c mice [5],2/5
same,Volume of fluid accumulating in the small intestine,BALB/c mice [5],dose-dependent reduction
"CC(C)Cn1c(=O)n(C)c(=O)c2[nH]cnc21 [IBMX, 3-Isobutyl-1-Methylxanthine]",Effect on attenuation of cyclic GMP production by 2.0 mM Ca^2+,cyclic GMP,reverses this effect
same,Effect on attenuation of cyclic AMP production by 2.0 mM Ca^2+,cyclic AMP; IBMX added (1 mM per method),reverses this effect
[Ca+2] [Ca^2+],Effect on net fluid secretion induced by Guanylin and CTX,[6]; [10],reversed net fluid secretion
same,Effect on net fluid secretion induced by Guanylin or STa,[1],reversed net fluid secretion
same,Effect on net fluid secretion induced by forskolin or cholera toxin,[1],reversed net fluid secretion
same,Effect on Cl^− entry via NKCCl in the presence of CTX,[7]; calcium increased from 0.1 to 2 mM,inhibited Cl^− entry
same,Effect on net fluid secretion induced by Guanylin and CTX,[8]; [10],did not
same,Increase in NHE activity,[9]; basolateral bath Ca^2+ raised from 0.1 to 2 mM,8 fold
same,Effect on cAMP-mediated reduction in fluid absorption,rat colonic crypts; extracellular Ca^2+ increased to 2 mM,significantly abrogated
same,Effect on forskolin or cholera toxin induced cyclic AMP production,cyclic AMP,attenuates
Guanylin,Net fluid movement (Jv) on exposure to secretagogue,[6],induced net fluid secretion
same,Net fluid movement (Jv) on exposure to secretagogue,[1],induced net fluid secretion
same,Net fluid movement (Jv) on exposure to secretagogue,[8],induced net fluid secretion
CCCCNc1cc(C(=O)O)cc(S(N)(=O)=O)c1Oc1ccccc1 [bumetanide],Effect on forskolin-stimulated increase in cell Cl^−,[7]; 100 μM basolateral,abolished
same,netJv in the absence of secretagogues,rat colonic crypts; added to basolateral bath,increased the positive or absorptive ^netJv
"COc1cccc([C@@H](C)NCCCc2ccccc2Cl)c1.Cl [Compound A, N-(3-[2-chlorophenyl]-propyl)-R-α-methyl-3-methoxybenzylamine HCl]",Effect on net fluid secretion induced by Guanylin and CTX,"[6]; 100 nM, 0.1 mM calcium",effectively reversed net fluid secretion
same,EC50,[1]; compound in bath,0.0051 nM
same,EC50,[1]; compound in lumen,0.0234 nM
same,Effect on net fluid secretion in presence of forskolin and PLC inhibitor U73122,[1]; compound added to both luminal and bath,did not completely reverse net fluid secretion
same,Effect on net fluid secretion in presence of forskolin and PLC inhibitor U73122,[1]; compound added to lumen or bath,had no significant effect on reversing net fluid secretion
same,Effect on rate of forskolin-stimulated Cl^− entry,[7]; 100 nM in basolateral fluid,significantly reduced
same,Effect on net fluid secretion induced by Guanylin and CTX,"[8]; 100 nM, 0.1 mM calcium",did not reverse net fluid secretion
same,Increase in NHE activity,[9]; Compound A added to the 2 mM Ca^2+-containing bath,12 fold
same,Effect on cAMP-mediated reduction in fluid absorption,rat colonic crypts; added to basolateral bath in the presence of 0.5 mM calcium,significantly abrogated
same,Effect on forskolin-induced net fluid secretion in presence of TTX,[3],attenuated forskolin-induced net fluid secretion
cholera toxin,Net fluid movement (Jv) on exposure to secretagogue,[6],induced net fluid secretion
same,Net fluid movement (Jv) on exposure to secretagogue,[1],induced net fluid secretion
same,Net fluid movement (Jv) on exposure to secretagogue,[8],induced net fluid secretion
same,cAMP production on exposure to secretagogue,cyclic AMP,induce cAMP production; also recorded: induce cyclic AMP production
"Cn1c(NC[C@@H](N)Cc2ccccc2)nc(-c2ccncc2)c(-c2ccc3ccccc3c2)c1=O [Compound C, 2-(((2S)-2-amino-3-phenylpropyl)amino)-3-methyl-5-(2-naphthalenyl)-6-(4-pyridinyl)-4(3H)-pyrimidinone]",Mortality,"BALB/c mice [5]; female, BALB/c",100%
